In ChEMBL document CHEMBL3885861, “Open TG-GATES”:

Species on record: Rattus norvegicus
Experiment: Open TG-GATES - Regimen: Single
Format: toxicity, organism-based, Sprague-Dawley
Parameters: regimen Single, gender Male, age 6 weeks
Details: in vivo, po, 0 mg/kg, route gavage, dose level Control; for APTT / Bas / Eos / Fbg / Hb / Ht / Lym / MCH / MCHC / MCV / Mono / Neu / PT / Plat / RBC / Ret / WBC: tissue Blood; for KIDNEY_L / KIDNEY_R / KIDNEY_TOTAL: tissue Kidney; for LIVER: tissue Liver; for A/G / ALP / ALT / AST / BUN / CRE / Ca / Cl / DBIL / GLC / IP / K / LDH / Na / PL / RALB / TBIL / TC / TG / TP / gamma-GTP: tissue Plasma

What does the source list for `Brc1ccccc1` [BROMOBENZENE]?
TERMINAL_BW (3 h): 190.9 g; APTT (3 h): 15.7 s; Bas (3 h): 0.2%; Eos (3 h): 0.8%; Fbg (3 h): 247.4 mg/dL; Hb (3 h): 13.1 g/dL; Ht (3 h): 39.4%; Lym (3 h): 72.8%; MCH (3 h): 21.2 pg; MCHC (3 h): 33.2%; MCV (3 h): 63.8 fL; Mono (3 h): 4.2%; Neu (3 h): 21.6%; PT (3 h): 12.4 s; Plat (3 h): 117.7 x10_4/uL; RBC (3 h): 618.4 x10_4/ul; Ret (3 h): 9.8%; WBC (3 h): 108.2 x10_2/uL; KIDNEY_L (3 h): 0.9 g; KIDNEY_R (3 h): 0.8 g; KIDNEY_TOTAL (3 h): 1.7 g; LIVER (3 h): 8.1 g; A/G (3 h): 0.9; ALP (3 h): 1539.4 IU/L; ALT (3 h): 46.2 IU/L; AST (3 h): 83.2 IU/L; BUN (3 h): 10.2 mg/dL; CRE (3 h): 0.2 mg/dL; Ca (3 h): 11.2 mg/dL; Cl (3 h): 106.2 meq/L; DBIL (3 h): 0.022 mg/dL; GLC (3 h): 186.4 mg/dL; IP (3 h): 9.4 mg/dL; K (3 h): 3.8 meq/L; LDH (3 h): 84.2 IU/L; Na (3 h): 141.6 meq/L; PL (3 h): 159.2 mg/dL; RALB (3 h): 2.6 g/dL; TBIL (3 h): 0.058 mg/dL; TC (3 h): 83.6 mg/dL; TG (3 h): 88.4 mg/dL; TP (3 h): 5.5 g/dL; gamma-GTP (3 h): 2 IU/L; TERMINAL_BW (6 h): 191.8 g; APTT (6 h): 15.7 s; Bas (6 h): 0%; Eos (6 h): 1%; Fbg (6 h): 276.2 mg/dL; Hb (6 h): 13 g/dL; Ht (6 h): 39.1%; Lym (6 h): 75.8%; MCH (6 h): 21.4 pg; MCHC (6 h): 33.3%; MCV (6 h): 64.3 fL; Mono (6 h): 3.8%; Neu (6 h): 19.2%; PT (6 h): 12.4 s; Plat (6 h): 109.8 x10_4/uL; RBC (6 h): 608.2 x10_4/ul; Ret (6 h): 9.3%; WBC (6 h): 92.3 x10_2/uL; KIDNEY_L (6 h): 0.8 g; KIDNEY_R (6 h): 0.8 g; KIDNEY_TOTAL (6 h): 1.6 g; LIVER (6 h): 7.6 g; A/G (6 h): 0.9; ALP (6 h): 1707 IU/L; ALT (6 h): 40.8 IU/L; AST (6 h): 76.6 IU/L; BUN (6 h): 9.2 mg/dL; CRE (6 h): 0.2 mg/dL; Ca (6 h): 11 mg/dL; Cl (6 h): 107.4 meq/L; DBIL (6 h): 0.01 mg/dL; GLC (6 h): 184.2 mg/dL; IP (6 h): 10 mg/dL; K (6 h): 4 meq/L; LDH (6 h): 69.6 IU/L; Na (6 h): 141.4 meq/L; PL (6 h): 149.2 mg/dL; RALB (6 h): 2.6 g/dL; TBIL (6 h): 0.054 mg/dL; TC (6 h): 83.2 mg/dL; TG (6 h): 37.8 mg/dL; TP (6 h): 5.5 g/dL; gamma-GTP (6 h): 1.2 IU/L; TERMINAL_BW (9 h): 191.1 g; APTT (9 h): 15.4 s; Bas (9 h): 0%; Eos (9 h): 1%; Fbg (9 h): 258.4 mg/dL; Hb (9 h): 12.9 g/dL; Ht (9 h): 38.8%; Lym (9 h): 74.8%; MCH (9 h): 21.5 pg; MCHC (9 h): 33.4%; MCV (9 h): 64.4 fL; Mono (9 h): 3%; Neu (9 h): 21.2%; PT (9 h): 12.3 s; Plat (9 h): 120.5 x10_4/uL; RBC (9 h): 603 x10_4/ul; Ret (9 h): 9.6%; WBC (9 h): 75.5 x10_2/uL; KIDNEY_L (9 h): 0.8 g; KIDNEY_R (9 h): 0.8 g; KIDNEY_TOTAL (9 h): 1.6 g; LIVER (9 h): 7.4 g; A/G (9 h): 0.9; ALP (9 h): 1515.4 IU/L; ALT (9 h): 36.2 IU/L; AST (9 h): 70.2 IU/L; BUN (9 h): 11.4 mg/dL; CRE (9 h): 0.2 mg/dL; Ca (9 h): 10.8 mg/dL; Cl (9 h): 105.8 meq/L; DBIL (9 h): 0.006 mg/dL; GLC (9 h): 193.4 mg/dL; IP (9 h): 11.8 mg/dL; K (9 h): 3.6 meq/L; LDH (9 h): 81.2 IU/L; Na (9 h): 143.2 meq/L; PL (9 h): 146.8 mg/dL; RALB (9 h): 2.6 g/dL; TBIL (9 h): 0.052 mg/dL; TC (9 h): 84.2 mg/dL; TG (9 h): 39.6 mg/dL; TP (9 h): 5.6 g/dL; gamma-GTP (9 h): 1.4 IU/L; TERMINAL_BW (24 h): 196.6 g; APTT (24 h): 15.4 s; Bas (24 h): 0%; Eos (24 h): 1%; Fbg (24 h): 270.2 mg/dL; Hb (24 h): 12.6 g/dL; Ht (24 h): 37.4%; Lym (24 h): 74.6%; MCH (24 h): 21.1 pg; MCHC (24 h): 33.8%; MCV (24 h): 62.6 fL; Mono (24 h): 3.4%; Neu (24 h): 19.8%; PT (24 h): 12.3 s; Plat (24 h): 114.7 x10_4/uL; RBC (24 h): 598.2 x10_4/ul; Ret (24 h): 8.1%; WBC (24 h): 81.7 x10_2/uL; KIDNEY_L (24 h): 0.8 g; KIDNEY_R (24 h): 0.8 g; KIDNEY_TOTAL (24 h): 1.7 g; LIVER (24 h): 8.7 g; A/G (24 h): 0.9; ALP (24 h): 1600.6 IU/L; ALT (24 h): 50.8 IU/L; AST (24 h): 79.6 IU/L; BUN (24 h): 14.2 mg/dL; CRE (24 h): 0.2 mg/dL; Ca (24 h): 10.5 mg/dL; Cl (24 h): 105.2 meq/L; DBIL (24 h): 0.004 mg/dL; GLC (24 h): 187.4 mg/dL; IP (24 h): 8 mg/dL; K (24 h): 4.2 meq/L; LDH (24 h): 114.4 IU/L; Na (24 h): 141.4 meq/L; PL (24 h): 136.8 mg/dL; RALB (24 h): 2.6 g/dL; TBIL (24 h): 0.04 mg/dL; TC (24 h): 76.8 mg/dL; TG (24 h): 55.4 mg/dL; TP (24 h): 5.5 g/dL; gamma-GTP (24 h): 1.4 IU/L
